Laboratory results as given in patent US4220577A, “Iodopropargyl pyridyl and picolinyl ethers and thioethers as paint fungicides” (Givaudan Corporation, priority 1979, dated 1980).
Converted amounts (≈) assume the structure as drawn.

Legend:
Pseudomonas aeruginosa = experiment: 5-fold serial dilution test in agar, MIC, B3; format: cell-based; conditions: 37° C., 48 hours, read-out: Minimum Inhibitory Concentration Range
Description: (§1) Antibacterial and antifungal activity were evaluated by a 5-fold serial dilution test in agar. In this test, compounds were prepared as 6% solutions in dimethylformamide or ethanol. The 6% solution was then 5-fold serially diluted in test tubes to give the desired concentrations when mixed with agar and poured into sterile Petri dishes. Trypticase glucose extract agar was used for the bacterial testing; mildew glucose agar for the fungal testing. The bacterial plates were spot inoculated with 24-hour nutrient broth cultures and incubated at 37° C. for 48 hours. The fungal plates were spot inoculated with spore suspensions and incubated at 28° C. for seven days. At the end of the incubation periods, all plates were examined for growth. The minimum inhibitory concentration (MIC) for each organism is expressed in Table I. In the ranges presented, growth is observed only at the lower concentration.
B3 Pseudomonas aeruginosa

Proteus vulgaris = experiment: 5-fold serial dilution test in agar, MIC, B4; format: cell-based; conditions: 37° C., 48 hours, read-out: Minimum Inhibitory Concentration Range
Description: as §1

Penicillium piscarium = experiment: 5-fold serial dilution test in agar, MIC, F3; format: cell-based; conditions: 168 h, 28° C., seven days, read-out: Minimum Inhibitory Concentration Range
Description: as §1
F3 Penicillium piscarium

Escherichia coli = experiment: 5-fold serial dilution test in agar, MIC, B2; format: cell-based; conditions: 37° C., 48 hours, read-out: Minimum Inhibitory Concentration Range
Description: as §1

Staphylococcus aureus = experiment: 5-fold serial dilution test in agar, MIC, B1; format: cell-based; conditions: 37° C., 48 hours, read-out: Minimum Inhibitory Concentration Range
Description: as §1
B1 Staphylococcus aureus

Aspergillus niger = experiment: 5-fold serial dilution test in agar, MIC, F1; format: cell-based; conditions: 168 h, 28° C., seven days, read-out: Minimum Inhibitory Concentration Range
Description: as §1

Aureobasidium pullulans = experiment: 5-fold serial dilution test in agar, MIC, F4; format: cell-based; conditions: 168 h, 28° C., seven days, read-out: Minimum Inhibitory Concentration Range
Description: as §1
F4 Aureobasidium pullulans

Aspergillus oryzae = experiment: 5-fold serial dilution test in agar, MIC, F2; format: cell-based; conditions: 168 h, 28° C., seven days, read-out: Minimum Inhibitory Concentration Range
Description: as §1

Bacillus subtilis = experiment: 5-fold serial dilution test in agar, MIC, B5; format: cell-based; conditions: 37° C., 48 hours, read-out: Minimum Inhibitory Concentration Range
Description: as §1
B5 Bacillus subtilis 4 3 μg/ml

[1] = test system: Aureobasidium pullulans (strain 2); experiment: Antifungal activity of painted birch blades after exposure to heat and light; format: cell-based; design: key to Surface Growth: 0: No growth; 1: Slight growth; 2: Moderate growth; 3: Heavy growth; conditions: after light (300-400 nm) and heat (40° C.) four weeks
Description: Successful paint fungicides must be stable when exposed to the elements such as heat and light. Such stability was tested in the laboratory by exposing painted sticks to heat and light. The compounds of this invention were incorporated into an exterior vinyl acetate latex paint as described in Example XXI. Birch blades (tongue depressors) were painted (two coats) and continuously exposed to light (wavelength 300-400 nm) and heat (40° C.) for four consecutive weeks. At the end of the exposure time, one-inch squares of the painted birch blades were cut and tested according to the procedure of Example XXI, using strain 2.

mildew = experiment: Outdoor field test of painted pine panels; conditions: Paint B (Acrylic latex-alkyd modified), .5%
Source text: A number of the compounds were field tested in various latex paints. Pine panels (6"×12"×1/2") were given two coats of paint and, after drying, were exposed at an outdoor location subject to high heat and humidity levels. Paints containing the novel componds of this invention were compared with those containing the commercial mecurial mildewcide phenyl mecuric acetate (PMA), a commercial non-mercurial mildewcide 2-n-octyl-4-isothiazolin-3-one and 3-iodo-2-propynyloxybenzene.

[2] = test system: Aureobasidium pullulans (strain 1); experiment: Antifungal activity on painted surfaces, strain 1; format: cell-based; design: key to Surface Growth: 0: No growth; 1: Slight growth; 2: Moderate growth; 3: Heavy growth; conditions: Strain 1, three weeks
Description: (§2) Any antifungal agent which can be used to prevent mildew on painted surfaces must be effective against Aureobasidium pullulans, the organism which is primarily responsible for mildew on painted surfaces. The effectiveness of the novel compounds was tested by incorporating the compound into an exterior latex paint, applying the paint to a surface, and testing the ability of the painted surface to prevent the growth of Aureobasidium pullulans. The tests were run as described below. The novel compounds were incorporated into an exterior vinyl acetate latex paint by mulling the compound into the paint. The compounds were tested in the paints at levels of 0.25% and 0.5%. One coat of this paint was applied to each side of a piece of Whatman #30 filter paper. Two one-inch squares were cut from the filter paper. Each square was centered on the agar surface of separate Petri dishes containing malt agar. One square was inoculated with a suspension of Aureobasidium pullulans (strain 1) which was an in-house strain used for routine antimicrobial testing. The second square was inoculated with a suspension of Aureobasidium pullulans (strain 2) which was grown from a culture obtained from the surface of a mildew infested panel. Squares painted with the same exterior vinyl acetate latex paint, but without the novel compounds of this invention, were run in parallel. The Petri dishes were then incubated at 27° C. and at greater than 90% humidity for a three week period and observed for zones of inhibition and surface growth.

[3] = test system: Aureobasidium pullulans (strain 2); experiment: Antifungal activity on painted surfaces, strain 2; format: cell-based; design: key to Surface Growth: 0: No growth; 1: Slight growth; 2: Moderate growth; 3: Heavy growth; conditions: Strain 2, three weeks
Description: as §2

[4] = 0.25% in vinyl acetate latex paint
[5] = 0.5% in vinyl acetate latex paint

In the case of Nc1ncccc1OCC#CI [drawing 6], the MIC (Pseudomonas aeruginosa) is reported as 76 to 384 µg/mL (≈ 277 to 1400 µM), the MIC (Proteus vulgaris) is reported as 3 to 15 µg/mL (≈ 10.9 to 54.7 µM) and the MIC (Penicillium piscarium) is reported as 0.6 to 3 µg/mL (≈ 2.19 to 10.9 µM). The MIC (Escherichia coli) was 15 to 76 µg/mL (≈ 54.7 to 277 µM), the MIC (Staphylococcus aureus) was 15 to 76 µg/mL (≈ 54.7 to 277 µM) and the MIC (Aspergillus niger) was 0.12 to 0.6 µg/mL (≈ 0.438 to 2.19 µM). It also gave an MIC (Aureobasidium pullulans) of 0.6 to 3 µg/mL (≈ 2.19 to 10.9 µM), an MIC (Aspergillus oryzae) of 0.12 to 0.6 µg/mL (≈ 0.438 to 2.19 µM) and an MIC (Bacillus subtilis) of 15 to 76 µg/mL (≈ 54.7 to 277 µM).

For IC#CCSc1ccncc1 [drawing 10], the MIC (Pseudomonas aeruginosa) was > 1920 µg/mL, the MIC (Proteus vulgaris) was 384 to 1920 µg/mL (≈ 1400 to 6980 µM) and the MIC (Penicillium piscarium) was 0.12 to 0.6 µg/mL (≈ 0.436 to 2.18 µM). The MIC (Escherichia coli) was > 1920 µg/mL, the MIC (Staphylococcus aureus) was 384 to 1920 µg/mL (≈ 1400 to 6980 µM) and the MIC (Aspergillus niger) was < 0.03 µg/mL. For the same molecule, the MIC (Aureobasidium pullulans) was 0.12 to 0.6 µg/mL (≈ 0.436 to 2.18 µM), the MIC (Aspergillus oryzae) was 0.12 to 0.6 µg/mL (≈ 0.436 to 2.18 µM) and the MIC (Bacillus subtilis) was 76 to 384 µg/mL (≈ 276 to 1400 µM).

In the case of IC#CCOc1cccnc1 [drawing 19], the “Surface Growth” value ([1]; 0.25%) is reported as 0, the “Surface Growth” value ([1]; 0.5%) is reported as 0 and the “Zone of Inhibition” value ([1]; 0.5%) is reported as 1 (1-5 mm).

With Cc1ccc(OCC#CI)cn1 [drawing 20] the “Surface Growth” value ([1]; 0.25%) was 0.

Nc1ncccc1OCC#CI [drawing 23] was tested, and the “Surface Growth” value ([1]; 0.25%) was 1 and the “Surface Growth” value ([1]; 0.5%) was 0.

With IC#CCOc1ccncc1 [drawing 26] the “Surface Growth” value ([1]; 0.25%) was 2 and the “Surface Growth” value ([1]; 0.5%) was 2.

IC#CCOc1cccnc1 [Compound 1, 3-(3-iodo-2-propynyloxy)pyridine] was tested, and the “Panel Scoring” value (mildew; month 5) was 8 and the “Panel Scoring” value (mildew; month 6) was 8.

With Clc1ncccc1OCC#CI [drawing 4] the MIC (Pseudomonas aeruginosa) was > 1920 µg/mL, the MIC (Proteus vulgaris) was 3 to 15 µg/mL (≈ 10.2 to 51.1 µM) and the MIC (Penicillium piscarium) was 0.12 to 0.6 µg/mL (≈ 0.409 to 2.04 µM). For the same molecule, the MIC (Escherichia coli) was 15 to 76 µg/mL (≈ 51.1 to 259 µM), the MIC (Staphylococcus aureus) was 3 to 15 µg/mL (≈ 10.2 to 51.1 µM) and the MIC (Aspergillus niger) was < 0.03 µg/mL. It also gave an MIC (Aureobasidium pullulans) of 0.12 to 0.6 µg/mL (≈ 0.409 to 2.04 µM), an MIC (Aspergillus oryzae) of 0.03 to 0.12 µg/mL (≈ 0.102 to 0.409 µM) and an MIC (Bacillus subtilis) of 3 to 15 µg/mL (≈ 10.2 to 51.1 µM).

IC#CCOCc1cccnc1 [drawing 16] was tested, and the “Surface Growth” value [2, 4] was 0, the “Zone of Inhibition” value [2, 4] was 4 (16-20 mm) and the “Surface Growth” value [2, 5] was 0. The “Zone of Inhibition” value [2, 5] was 5 (>20 mm), the “Surface Growth” value [3, 4] was 0 and the “Zone of Inhibition” value [3, 4] was 3 (11-15 mm). The “Surface Growth” value [3, 5] was 0 and the “Zone of Inhibition” value [3, 5] was 4 (16-20 mm).

For Cc1ccc(OCC#CI)cn1 [drawing 12], the “Surface Growth” value [2, 4] was 0, the “Zone of Inhibition” value [2, 4] was 2 (6-10 mm) and the “Surface Growth” value [2, 5] was 0. For the same molecule, the “Zone of Inhibition” value [2, 5] was 2 (6-10 mm), the “Surface Growth” value [3, 4] was 0 and the “Zone of Inhibition” value [3, 4] was 1 (1-5 mm). For the same molecule, the “Surface Growth” value [3, 5] was 0 and the “Zone of Inhibition” value [3, 5] was 2 (6-10 mm).

With Clc1ncccc1OCC#CI [drawing 13] the “Surface Growth” value [2, 4] was 0, the “Zone of Inhibition” value [2, 4] was 2 (6-10 mm) and the “Surface Growth” value [2, 5] was 0. For the same molecule, the “Zone of Inhibition” value [2, 5] was 3 (11-15 mm), the “Surface Growth” value [3, 4] was 0 and the “Zone of Inhibition” value [3, 4] was 1 (1-5 mm). The “Surface Growth” value [3, 5] was 0 and the “Zone of Inhibition” value [3, 5] was 2 (6-10 mm).

Clc1ncccc1OCC#CI [drawing 21] was tested, and the “Surface Growth” value ([1]; 0.25%) was 0.

Cc1ccc(OCC#CI)cn1 [drawing 3] was tested, and the MIC (Pseudomonas aeruginosa) was > 1920 µg/mL, the MIC (Proteus vulgaris) was > 1920 µg/mL and the MIC (Penicillium piscarium) was 0.03 to 0.12 µg/mL (≈ 0.11 to 0.439 µM). For the same molecule, the MIC (Escherichia coli) was > 1920 µg/mL, the MIC (Staphylococcus aureus) was > 1920 µg/mL and the MIC (Aspergillus niger) was < 0.03 µg/mL. The MIC (Aureobasidium pullulans) was < 0.03 µg/mL, the MIC (Aspergillus oryzae) was < 0.03 µg/mL and the MIC (Bacillus subtilis) was > 1920 µg/mL.

For Cc1ccc(OCC#CI)c(Cl)n1 [drawing 22], the “Surface Growth” value ([1]; 0.5%) was 0.
